Measurements reported in the supplement of paper PMC9663587.

Key:
Test in all cases: GRmax, 72 h; higher = less effect;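 further: breast cell lines in 384-well plates, nine doses across a 10^4 range, Dye Drop imaging of viable cells vs DMSO and time-zero plates, GR 0 means no net growth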
HCC1143 = test system: HCC1143
BT474 = test system: BT474
MCF12A = test system: MCF12A
HCC70 = test system: HCC70
CAL851 = test system: CAL851
EVSAT = test system: EVSAT
HCC38 = test system: HCC38
184A1 = test system: 184A1
MDAMB231 = test system: MDAMB231
UACC893 = test system: UACC893
SKBR3 = test system: SKBR3
HCC1419 = test system: HCC1419
ZR751 = test system: ZR751

| Compound | GRmax, 72 h (HCC1143) [GR] | GRmax, 72 h (BT474) [GR] | GRmax, 72 h (MCF12A) [GR] | GRmax, 72 h (HCC70) [GR] | GRmax, 72 h (CAL851) [GR] | GRmax, 72 h (EVSAT) [GR] | GRmax, 72 h (HCC38) [GR] | GRmax, 72 h (184A1) [GR] | GRmax, 72 h (MDAMB231) [GR] | GRmax, 72 h (UACC893) [GR] | GRmax, 72 h (SKBR3) [GR] | GRmax, 72 h (HCC1419) [GR] | GRmax, 72 h (ZR751) [GR] |
| --- | --- | --- | --- | --- | --- | --- | --- | --- | --- | --- | --- | --- | --- |
| COc1cccc2c1C(=O)c1c(O)c3c(c(O)c1C2=O)C[C@@](O)(C(=O)CO)C[C@@H]3O[C@H]1C[C@H](N)[C@H](O)[C@H](C)O1 [Doxorubicin] (max 3.162 µM) | -0.251 | -0.605 | -0.138 | -0.779 | -0.378 | -0.192 | -0.406 | 0.028 | -0.486 | -0.405 | -0.616 | -0.466 | -0.0018 |
| CO[C@H]1C[C@@H]2CC[C@@H](C)[C@@](O)(O2)C(=O)C(=O)N2CCCC[C@H]2C(=O)O[C@H]([C@H](C)C[C@@H]2CC[C@@H](OCCO)[C@H](OC)C2)CC(=O)[C@H](C)/C=C(\C)[C@@H](O)[C@@H](OC)C(=O)[C@H](C)C[C@H](C)/C=C/C=C/C=C/1C [Everolimus] (max 10 µM) | 0.557 | 0.14 | 0.571 | 0.373 | 0.371 | 0.354 | 0.473 | 0.501 | 0.711 | 0.159 | 0.118 | 0.18 | 0.305 |
| CCC(=O)Nc1ccc(C(=O)Nc2ccc(Nc3ncc4c(n3)N(C)c3ccc(C)cc3C(=O)N4C)cc2)cc1 [FMF-03-145-1] | 0.09 | -0.227 | 0.0223 | -0.317 | -0.136 | -0.139 | -0.376 | -0.0063 | -0.0038 | 0.127 | -0.0145 | 0.387 | 0.153 |
| COc1cc(N2CCN(C)CC2)ccc1Nc1ncc2c(n1)N(C)c1ccccc1C(=O)N2CC(F)(F)F [FMF-03-146-1] | 0.815 | 1.07 | 0.95 | 0.926 | 0.916 | 0.994 | 0.9 | 1.04 | 0.874 | 0.987 | 0.676 | 0.805 | 0.939 |
| CN1CC[C@H](c2c(O)cc(O)c3c(=O)cc(-c4ccccc4Cl)oc23)[C@H](O)C1 [Flavopiridol] (max 1 µM) | -0.316 | -0.751 | -0.15 | -0.811 | -0.223 | -0.514 | -0.448 | -0.329 | -0.441 | -0.464 | -0.656 | -0.263 | -0.353 |
| CC(C)n1nc(-c2ccc3oc(N)nc3c2)c2c(N)ncnc21 [INK128/MLN0128] (max 3.162 µM) | 0.0314 | -0.587 | 0.103 | -0.162 | 0.016 | -0.31 | -0.0087 | 0.139 | 0.101 | -0.483 | -0.506 | -0.147 | -0.0856 |
| CC(C)NC[C@@H](C(=O)N1CCN(c2ncnc3c2[C@H](C)C[C@H]3O)CC1)c1ccc(Cl)cc1 [Ipatasertib/GDC0068] (max 10 µM) | 0.751 | -0.358 | 0.654 | -0.262 | 0.471 | -0.311 | 0.706 | 0.631 | 0.925 | -0.794 | 0.356 | 0.505 | 0.608 |
| CN(C)C(=O)c1cc2cnc(Nc3ccc(N4CCNCC4)cn3)nc2n1C1CCCC1 [LEE011/Ribociclib] (max 10 µM) | 0.298 | 0.583 | 0.789 | 1.04 | 1.04 | 0.616 | 0.241 | 0.11 | 0.204 | 0.469 | 0.476 | 0.547 | 0.381 |
| CCNC(=O)c1noc(-c2cc(C(C)C)c(O)cc2O)c1-c1ccc(CN2CCOCC2)cc1 [Luminespib/NVP-AUY922] (max 1 µM) | -0.192 | -0.505 | -0.316 | -0.583 | -0.384 | -0.29 | -0.209 | 0.0336 | -0.178 | -0.898 | -0.0766 | -0.297 | 0.0576 |
| CCOc1cc2ncc(C#N)c(Nc3ccc(OCc4ccccn4)c(Cl)c3)c2cc1NC(=O)/C=C/CN(C)C [Neratinib/HKI272] (max 3.162 µM) | 0.0791 | -0.919 | 0.103 | 0.0595 | -0.326 | 0.649 | 0.457 | 0.162 | -0.0957 | -0.901 | -0.253 | -0.501 | 0.709 |
| O=C(c1cc(Cc2n[nH]c(=O)c3ccccc23)ccc1F)N1CCN(C(=O)C2CC2)CC1 [Olaparib/AZD2281] (max 10 µM) | 0.456 | 0.64 | 0.832 | 0.719 | 0.387 | 0.773 | 0.425 | 0.563 | 0.618 | 0.549 | 0.565 | 0.632 | 0.801 |
| CC(=O)O[C@H]1C(=O)[C@@]2(C)[C@H]([C@H](OC(=O)c3ccccc3)[C@]3(O)C[C@H](OC(=O)[C@H](O)[C@@H](NC(=O)c4ccccc4)c4ccccc4)C(C)=C1C3(C)C)[C@]1(OC(C)=O)CO[C@@H]1C[C@@H]2O [Paclitaxel] (max 1 µM) | -0.335 | -0.636 | -0.124 | -0.506 | -0.346 | -0.271 | -0.308 | -0.268 | -0.12 | -0.384 | -0.34 | 0.214 | -0.0835 |
| CS(=O)(=O)N1CCN(Cc2cc3nc(-c4cccc5[nH]ncc45)nc(N4CCOCC4)c3s2)CC1 [Pictilisib/GDC0941] (max 10 µM) | -0.129 | -0.828 | 0.331 | -0.597 | -0.0252 | -0.565 | 0.357 | 0.0537 | 0.305 | -0.878 | -0.127 | -0.21 | -0.0806 |
| O=C1NC(=NCc2cccs2)SC1=Cc1ccc2ncccc2c1 [R0-3306] (max 10 µM) | -0.114 | 0.144 | 0.458 | -0.204 | -0.0866 | -0.27 | -0.239 | -0.142 | 0.206 | 0.376 | -0.0433 | 0.246 | 0.51 |
| CNCc1ccc(-c2[nH]c3cc(F)cc4c3c2CCNC4=O)cc1 [Rucaparib] (max 10 µM) | 0.785 | 0.852 | 0.825 | 1.06 | 0.44 | 0.908 | 0.652 | 0.748 | 0.634 | 0.502 | 0.757 | 0.855 | 0.835 |
